assay: HPLC retention times (reverse phase) as a measure of hydrophilicity; format: physicochemical; conditions: reverse phase C18 3.5 μm 4.6×75 mm; 45° C.; flow 1.0 mL/min; isocratic 40:60 v/v H2O:MeOH; shorter retention times correspond to higher hydrophilicity
Procedure: HPLC Retention Times [min] for Compounds According to the Invention
HPLC Conditions: Waters's SYMMETRY® HPLC column system (C18 3.5 μm 4.6×75 mm); T: 45° C.; flow 1.0 mL/min; isocratic eluent conditions 40:60 v/v/H2O:MeOH. Injection volume: 100 μL.
Solvents used for eluent are of HPLC grade, water filtered through a Millipore apparatus; all solvents were filtered through a 0.45 μm Millipore filter and degassed by N2 stream prior use.
Since the analyses are carried in reverse phase, shorter retention times correspond to higher hydrophilicity.

| Structure (SMILES) | retention time [min] |
| --- | --- |
| C#C[C@]1(O)C=C2CCC3C(CC[C@@]4(C)C3CC[C@@H]4C(C)=O)[C@@]2(C)CC1 (stereo partly drawn) [UC 2024, 3β-ethynyl, 3α-hydroxyl, Δ4-pregnen-20-one] | 14.0 |
| C#C[C@@]1(O)CC[C@@]2(C)[C@@H](CC[C@@H]3[C@@H]2CC[C@]2(C)C(=O)CC[C@@H]32)C1 [UC 2021, 3β-ethynyl, 3α-hydroxyl, androstan-17-one] | 7.8 |
| CC(=O)[C@H]1CC[C@H]2[C@@H]3CC[C@@H]4C[C@@H](O)CC[C@]4(C)[C@H]3CC[C@]12C [3β-5β-pregnan-20-one, reference compound] | 24.4 |
| CC(=O)[C@H]1CC[C@H]2[C@@H]3CC[C@H]4C[C@@H](O)CC[C@]4(C)[C@H]3CC[C@]12C [3β-5α-pregnan-20-one, reference compound] | 30.0 |
| C#C[C@@]1(O)CC[C@@]2(C)[C@@H](CC[C@@H]3[C@@H]2CC[C@]2(C)[C@@H](/C(C)=N/O)CC[C@@H]32)C1 [UC 2026, 3β-ethynyl, 3α-hydroxyl, 5α-pregnan-20-one oxime] | 16.9 |
| C#C[C@@]1(O)CC[C@@]2(C)C(CC[C@@H]3[C@@H]2CC[C@]2(C)/C(=N\O)CC[C@@H]32)C1 (stereo partly drawn) [UC 2025, 3β-ethynyl, 3α-hydroxyl, androstan-17-one oxime] | 13.9 |

From US8853190B2, “Steroids having increased water solubility and resistance against metabolism, and methods for their production” (Umecrine AB, priority 2006, dated 2014)
